Reference: PubChem BioAssay (NCI)
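Exposure lasted 48 hours, with cells grown in 96-well plates and compounds tested at five concentrations. GI50 marks 50% less growth. TGI: concentration producing complete growth inhibition.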

Tests used:
Assay in all cases: inhibition of tumour cell growth, NCI panel, 48 h
DMS 114 small cell lung = tested on: DMS 114 small cell lung
HCT-116 colon = tested on: HCT-116 colon
HT29 colon = tested on: HT29 colon
KM12 colon = tested on: KM12 colon
MCF7 breast = tested on: MCF7 breast
NCI-H23 lung = tested on: NCI-H23 lung
SW-620 colon = tested on: SW-620 colon
UACC-257 melanoma = tested on: UACC-257 melanoma
M14 melanoma = tested on: M14 melanoma
MDA-MB-231 breast = tested on: MDA-MB-231 breast
SR leukemia = tested on: SR leukemia

| SMILES | TGI (DMS 114 small cell lung) [µM] | TGI (HCT-116 colon) [µM] | TGI (HT29 colon) [µM] | TGI (KM12 colon) [µM] | TGI (MCF7 breast) [µM] | TGI (NCI-H23 lung) [µM] | TGI (SW-620 colon) [µM] | TGI (UACC-257 melanoma) [µM] | TGI (M14 melanoma) [µM] | TGI (MDA-MB-231 breast) [µM] | TGI (SR leukemia) [µM] | GI50 (HT29 colon) [µM] | GI50 (KM12 colon) [µM] | GI50 (MCF7 breast) [µM] | GI50 (MDA-MB-231 breast) [µM] | GI50 (NCI-H23 lung) [µM] | GI50 (SR leukemia) [µM] | GI50 (SW-620 colon) [µM] | GI50 (UACC-257 melanoma) [µM] |
| --- | --- | --- | --- | --- | --- | --- | --- | --- | --- | --- | --- | --- | --- | --- | --- | --- | --- | --- | --- |
| O=C1CNC(=O)N1 | > 1120 | > 1120 | > 1120 | > 1120 | > 1120 | > 1120 | > 1120 | > 1120 | – | – | – | – | – | – | – | – | – | – | – |
| Cc1cc(C)c(S(=O)(=O)N(CCCCCCN)OCCCON(CCCCCCN)S(=O)(=O)c2c(C)cc(C)cc2C)c(C)c1 | – | 3.08 | 3.05 | 4.35 | 3.66 | 3.11 | – | 3.27 | 3.03 | 3.21 | – | – | – | – | – | – | – | – | – |
| CCOC(=O)c1csc(NC(=O)CCN2CCOCC2)n1 | – | – | > 100 | – | > 100 | > 100 | > 100 | > 100 | > 100 | > 100 | > 100 | – | – | – | – | – | – | – | – |
| Fc1cc(C2=Nn3c(nnc3-c3cc(F)c(Cl)cc3Cl)SC2)c(Cl)cc1Cl | – | – | 56.3 | 86.8 | > 100 | > 100 | 47.2 | > 100 | – | 34.5 | > 100 | 20.1 | 28.5 | 16.8 | 13.4 | 21.8 | 25.4 | 22.6 | 30.2 |
| O=c1n(Cc2ccccc2)c2ccccc2n1CC1CS1 (centres undefined) | > 100 | > 100 | – | > 100 | – | – | > 100 | – | > 100 | – | > 100 | – | – | – | – | – | – | – | – |
| CC1(C)CCCC2(C)[C@@H]1CC[C@]13C[C@](C)(CC[C@@H]21)[C@@H]3CO (some centres undefined) | > 100 | > 100 | > 100 | > 100 | – | > 100 | > 100 | > 100 | > 100 | – | – | – | – | – | – | – | – | – | – |
